Reference: patent US7892755B2, “Screening method” (Takeda Pharmaceutical Company Limited, priority 2004, dated 2011)

Experiments:
Format in all cases: cell-based
control CHO-K1 cells = experiment: Changes in intracellular calcium levels on FLIPR, control CHO-K1 cells with only expression vector pAKKO-111H
Description: (§1) The CHO-K1 cell line (purchased from ATCC) was incubated in HAM F-12 medium (Invitrogen) supplemented with 10% fetal calf serum, unless otherwise indicated. On the day before transfection, the cells were inoculated at 4.5×10^5/10 cm^2 and incubated at 37° C. for 15 hours or more in a CO2 incubator adjusted to 5% CO2 concentration. Using Lipofectamine reagent (Invitrogen), transfection was performed according to modifications of the procedure attached to the reagent. When a 6-well plate was used as the incubator, the transfection was performed as follows. Two tubes each having a 1.5 ml volume were prepared and 100 μl each of Opti-MEM medium (Invitrogen) was dispensed in each tube. Next, 1 μg of the GPR35 expression vector obtained in REFERENCE EXAMPLE 1 and 0.5 μg of Gα15 expression vector (Guthrie cDNA Resource Center) were incorporated into one tube and in another tube, 6 μl of Lipofectamine reagent was charged, which were then mixed together. The mixture was settled for 20 minutes at room temperature. To the solution, 800 μl of Opti-MEM medium was added and the resulting solution mixture for transfection was added to the CHO-K1 cells, which had been previously washed with Opti-MEM medium. The cells were then incubated in a CO2 incubator for 6 hours. After the incubation, the cells were rinsed with PBS (Invitrogen), then detached by 0.05% trypsin-EDTA solution (Invitrogen) and recovered by centrifugal operation. The cells obtained were counted and diluted to 5×10^4 cells per 100 μl of the medium. The dilution was dispensed to a black walled 96-well plate (Costar) at 100 μl per well, followed by incubation overnight in a CO2 incubator. Various test samples were added to the CHO-K1 cells, in which the receptor was transiently expressed, by the transfection procedure described above, whereby changes in intracellular calcium levels were assayed on a FLIPR (Molecular Device).
(§2) To assay the changes in intracellular calcium levels on FLIPR, the following pretreatment was made. First, an assay buffer was prepared to add fluorescence dye Fluo-3AM (DOJIN) to the cells, or to wash the cells immediately before the FLIPR assay. A solution was prepared by adding 20 ml of 1M HEPES (pH 7.4) (DOJIN) to 1000 ml of HBSS (Invitrogen) (hereinafter HBSS/HEPES solution). To the solution, there was added 10 ml of a solution obtained by dissolving 710 mg of Probenecid (Sigma) in 5 ml of 1N NaOH and further adding 5 ml of HBSS/HEPES solution thereto and mixing them. The resulting solution was used as an assay buffer. Next, 50 μg of Fluo-3AM was dissolved in 21 μl of DMSO (DOJIN), and an equal volume of 20% pluronic acid (Molecular Probes) was added to the solution. After mixing them, the mixture was added to 10.6 ml of an assay buffer supplemented with 105 μl of fetal calf serum to give a fluorescence dye solution. After the medium for the transfected CHO-K1 cells was removed, the fluorescence dye solution was immediately dispensed at 100 μl each per well and incubation was carried out in a CO2 incubator for an hour to take up the fluorescence dye into the cells. The incubated cells were washed with the assay buffer described above and set on FLIPR. Test samples to be added to the receptor-expressed CHO-K1 cells were prepared using the assay buffer and simultaneously set on FLIPR.
After the pretreatment described above was made, changes in intracellular calcium levels by the addition of various test samples were assayed on FLIPR. […]

GPR35 [1] = target: T1, GPR35 (Homo sapiens, UniProt Q9HC97, S294R); experiment: Changes in intracellular calcium levels on FLIPR, CHO-K1 cells transiently co-expressing GPR35 and Gα15; design: The resulting fragment (ca. 1 kb) was introduced into vector pAKKO-111; expressed in transfected cells; host or cells: CHO-K1 (ATCC), transient transfection; details: Fluo-3AM, 0.3-10 μM shown for DNQX and ellagic acid (FIG. 1, 2)
T1 sequence (Q9HC97 whole entry S294R, the tested form may be a part): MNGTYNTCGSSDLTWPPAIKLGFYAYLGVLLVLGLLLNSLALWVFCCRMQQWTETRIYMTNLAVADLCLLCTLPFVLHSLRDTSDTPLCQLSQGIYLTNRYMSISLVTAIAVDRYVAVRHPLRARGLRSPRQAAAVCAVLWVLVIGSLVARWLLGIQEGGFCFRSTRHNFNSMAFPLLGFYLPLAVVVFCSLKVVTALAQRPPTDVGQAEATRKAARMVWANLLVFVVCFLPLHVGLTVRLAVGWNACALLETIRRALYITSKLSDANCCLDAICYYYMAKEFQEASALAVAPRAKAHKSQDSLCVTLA
Description: as §1, §2
After the pretreatment described above was made, changes in intracellular calcium levels by the addition of various test samples were assayed on FLIPR.

mouse GPR35 = target: T2, mouse GPR35 (Mus musculus, UniProt Q9ES90, D300Y/S286F); experiment: Reactivity on FLIPR, CHO-K1 cells transfected with mouse GPR35 expression vector
T2 construct: the digestion product was inserted into plasmid vector pAKKO-111H; expressed in transfected cells; host or cells: CHO-K1 cells
T2 sequence (Q9ES90 whole entry S286F/D300Y): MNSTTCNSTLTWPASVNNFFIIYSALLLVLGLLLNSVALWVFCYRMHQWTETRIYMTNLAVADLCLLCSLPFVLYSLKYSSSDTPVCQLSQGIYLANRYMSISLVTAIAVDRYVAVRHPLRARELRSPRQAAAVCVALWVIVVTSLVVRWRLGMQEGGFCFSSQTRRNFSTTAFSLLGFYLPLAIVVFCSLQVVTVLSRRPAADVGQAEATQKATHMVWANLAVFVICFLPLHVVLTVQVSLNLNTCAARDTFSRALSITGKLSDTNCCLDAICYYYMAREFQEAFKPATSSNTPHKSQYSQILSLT
Description: The CHO-K1 cell line (purchased from ATCC) was incubated in HAM F-12 medium (Invitrogen) supplemented with 10% fetal calf serum, unless otherwise indicated. On the day before transfection, the cells were inoculated at 4.5×10^5/10 cm^2 and incubated at 37° C. for 15 hours or more in a CO2 incubator adjusted to 5% CO2 concentration. Using Lipofectamine reagent (Invitrogen), transfection was performed according to modifications of the procedure attached to the reagent. When a 6-well plate was used as the incubator, the transfection was performed as follows. Two tubes each having a 1.5 ml volume were prepared and 100 μl each of Opti-MEM medium (Invitrogen) was dispensed in each tube. […] The cells obtained were counted and diluted to 5×10^4 cells per 100 μl of the medium. […]
To assay the changes in intracellular calcium levels on FLIPR, the following pretreatment was made. First, an assay buffer was prepared to add fluorescence dye Fluo-3AM (DOJIN) to the cells, or to wash the cells immediately before the FLIPR assay. […] After mixing them, the mixture was added to 10.6 ml of an assay buffer supplemented with 105 μl of fetal calf serum to give a fluorescence dye solution. […]

GPR35 [2] = target: T1, GPR35; experiment: Changes in intracellular calcium levels on FLIPR, CHO cell line stably co-expressing human GPR35 and Gα16; design: expressed in transfected cells
Description: The Gα16-stably expressed cell line (Gα16/CHO cell line) as a host cell was prepared by transfecting the Gα16 expression vector (Guthrie cDNA Resource Center) into CHO cells in a conventional manner and incubating at 37° C. under 5% CO2 in αMEM medium (containing nucleic acid; Invitrogen) supplemented with 10% fetal calf serum (Invitrogen), 50 units/ml penicillin/50 ug/ml streptomycin (CAMBREX) and 1 mg/ml geneticin (Invitrogen). The cells that were incubated for 2 days in αMEM medium (containing nucleic acid) supplemented only with 10% fetal calf serum charged in a 75 cm^2 flask were used for the transfection. The transfection was carried out using Lipofectamine reagent (Invitrogen) by a modification of the protocol attached to the reagent. First, 2 centrifuge tubes each having a 15 ml volume were prepared and 600 μl each of Opti-MEM medium (Invitrogen) was dispensed in each tube. Next, 4.8 μg of the expression vector was charged in one tube and in another tube 36 μl of Lipofectamine reagent was charged, which were mixed together. The mixture was settled for 20 minutes at room temperature. […] The cells obtained were counted and diluted with αMEM medium (containing no nucleic acid; Invitrogen) supplemented only with 10% dialyzed fetal calf serum to have 0.3, 1.5 and 7.5 cells per 100 μl of the medium. […]

| Structure (SMILES) | response (increased intracellular calcium levels) in control cells (control CHO-K1 cells) | response (increased intracellular calcium levels) (GPR35 [1]) | reactivity of mouse GPR35 (FLIPR) (mouse GPR35) | intracellular calcium levels (GPR35 [2]) |
| --- | --- | --- | --- | --- |
| O=C1N=c2cc([N+](=O)[O-])cc([N+](=O)[O-])c2=NC1=O [5,7-dinitroquinoxaline-2,3-dione] | not observed | dose-dependently responded (increased intracellular calcium levels) |  |  |
| N#Cc1cc2c(cc1[N+](=O)[O-])=NC(=O)C(=O)N=2 [6-cyano-7-nitroquinoxaline-2,3-dione] | not observed | dose-dependently responded (increased intracellular calcium levels) |  |  |
| O=c1oc2c(O)c(O)cc3c(=O)oc4c(O)c(O)cc1c4c23 [ellagic acid] | not observed | dose-dependently responded (increased intracellular calcium levels) | responsive | increased |
